Data from patent publication US20260272899A1 (Bayer Aktiengesellschaft, priority 2024, published 2026).

CCOc1ncc(C)c2c1[C@H](c1ccc(C#N)cc1OC)C(C(N)=O)=C(C)N2 [finerenone, (4S)-4-(4-cyano-2-methoxyphenyl)-5-ethoxy-2,8-dimethyl-1,4-dihydro-1,6-naphthyridine-3-carboxamide]
Sudden death, number of subjects (AE of death or leading to death by preferred term, finerenone n = 2,993): 20
All-cause death, Rate (per 100 py) (No SGLT2i use at baseline, column headed Finerenone n = 2,610): 7.0 per 100 py
Total worsening heart failure events and death from cardiovascular causes: Rate per 100 patient-yr (finerenone N = 3,003): 14.9 per 100 patient-yr
